Results taken from US11203601B2, “Tricyclic compounds as glycogen synthase kinase 3 (GSK3) inhibitors and uses thereof” (The Broad Institute, Inc., priority 2017, dated 2021).

Columns and labels:
Assay in all cases: Carna kinome panel
Format in all cases: biochemical
EGFR = EGFR (Homo sapiens (Human), UniProt P00533); details: read-out: % Inhibition at 10 μM of the test compound
MAP3K3_Cascade = MAP3K3_Cascade (Homo sapiens (Human), UniProt Q99759); details: read-out: % Inhibition at 10 μM of the test compound
Sequence of MAP3K3_Cascade (Q99759 whole entry): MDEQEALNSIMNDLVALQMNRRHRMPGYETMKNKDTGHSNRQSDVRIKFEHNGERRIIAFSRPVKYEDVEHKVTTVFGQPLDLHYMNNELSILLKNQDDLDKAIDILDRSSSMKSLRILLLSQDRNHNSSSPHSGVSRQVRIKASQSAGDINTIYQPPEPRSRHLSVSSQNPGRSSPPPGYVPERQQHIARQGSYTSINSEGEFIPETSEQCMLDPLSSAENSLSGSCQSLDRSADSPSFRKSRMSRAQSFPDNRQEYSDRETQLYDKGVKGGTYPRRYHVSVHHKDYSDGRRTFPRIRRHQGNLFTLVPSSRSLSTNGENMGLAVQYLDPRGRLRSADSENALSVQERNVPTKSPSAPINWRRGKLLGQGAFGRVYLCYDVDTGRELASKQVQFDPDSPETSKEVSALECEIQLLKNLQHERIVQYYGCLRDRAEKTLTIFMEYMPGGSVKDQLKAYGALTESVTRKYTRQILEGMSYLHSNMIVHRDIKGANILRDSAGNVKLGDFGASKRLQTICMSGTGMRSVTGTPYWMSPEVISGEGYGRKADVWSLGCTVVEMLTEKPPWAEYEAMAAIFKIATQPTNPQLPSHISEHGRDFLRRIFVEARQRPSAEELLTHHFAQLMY

PDHK4 = PDHK4 (Homo sapiens (Human), UniProt Q16654); details: read-out: % Inhibition at 10 μM of the test compound
Sequence of PDHK4 (Q16654 whole entry): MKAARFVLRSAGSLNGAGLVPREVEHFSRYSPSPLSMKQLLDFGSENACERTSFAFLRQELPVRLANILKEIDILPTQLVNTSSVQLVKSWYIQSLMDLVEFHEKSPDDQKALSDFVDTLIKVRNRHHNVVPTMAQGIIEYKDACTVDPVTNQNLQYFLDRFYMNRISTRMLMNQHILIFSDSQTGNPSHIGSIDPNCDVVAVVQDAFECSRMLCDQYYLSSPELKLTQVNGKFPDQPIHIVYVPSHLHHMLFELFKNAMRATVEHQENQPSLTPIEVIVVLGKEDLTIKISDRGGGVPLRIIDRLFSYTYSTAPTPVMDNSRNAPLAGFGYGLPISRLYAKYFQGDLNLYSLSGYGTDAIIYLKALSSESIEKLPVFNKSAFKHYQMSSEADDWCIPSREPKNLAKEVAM

IRR = IRR (Homo sapiens (Human), UniProt P14616); details: read-out: % Inhibition at 10 μM of the test compound
MAP3K5_Cascade = MAP3K5_Cascade (Homo sapiens (Human), UniProt Q99683); details: read-out: % Inhibition at 10 μM of the test compound
CK1α = CK1α (Homo sapiens (Human), UniProt P48729); details: read-out: % Inhibition at 10 μM of the test compound
FGFR4(V550E) = FGFR4(V550E) (Homo sapiens (Human), UniProt P22455, V550E); details: read-out: % Inhibition at 10 μM of the test compound
PAK6 = PAK6 (Homo sapiens (Human), UniProt Q9NQU5); details: read-out: % Inhibition at 10 μM of the test compound
MER = MER (Homo sapiens (Human), UniProt Q12866); details: read-out: % Inhibition at 10 μM of the test compound
p38β = p38β (Homo sapiens (Human), UniProt Q15759); details: read-out: % Inhibition at 10 μM of the test compound
FGFR4(V550L) = FGFR4(V550L) (Homo sapiens (Human), UniProt P22455, V550L); details: read-out: % Inhibition at 10 μM of the test compound
YES = YES (Homo sapiens (Human), UniProt P07947); details: read-out: % Inhibition at 10 μM of the test compound
Sequence of YES (P07947 whole entry): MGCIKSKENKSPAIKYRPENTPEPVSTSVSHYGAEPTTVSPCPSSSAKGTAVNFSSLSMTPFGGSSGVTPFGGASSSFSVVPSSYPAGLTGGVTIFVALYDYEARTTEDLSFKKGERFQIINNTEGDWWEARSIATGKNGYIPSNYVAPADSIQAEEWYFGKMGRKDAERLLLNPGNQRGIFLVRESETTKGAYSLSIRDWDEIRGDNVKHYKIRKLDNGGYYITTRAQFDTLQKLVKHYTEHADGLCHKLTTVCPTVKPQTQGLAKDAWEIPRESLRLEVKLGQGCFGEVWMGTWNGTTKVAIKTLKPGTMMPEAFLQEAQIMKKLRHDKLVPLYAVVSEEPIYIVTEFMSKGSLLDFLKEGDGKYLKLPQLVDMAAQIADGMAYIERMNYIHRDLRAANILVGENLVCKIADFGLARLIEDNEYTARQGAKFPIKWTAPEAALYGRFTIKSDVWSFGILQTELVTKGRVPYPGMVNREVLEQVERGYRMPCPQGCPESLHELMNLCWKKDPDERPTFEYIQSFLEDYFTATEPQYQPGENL

EML4-ALK = EML4-ALK (Homo sapiens (Human), UniProt Q9UM73); details: read-out: % Inhibition at 10 μM of the test compound
PAK5 = PAK5 (Homo sapiens (Human), UniProt Q9P286); details: read-out: % Inhibition at 10 μM of the test compound
ALK(F1174L) = ALK(F1174L) (Homo sapiens (Human), UniProt Q9UM73, F1174L); details: read-out: % Inhibition at 10 μM of the test compound
MELK = MELK (Homo sapiens (Human), UniProt Q14680); details: read-out: % Inhibition at 10 μM of the test compound
DDR1 = DDR1 (Homo sapiens (Human), UniProt Q08345); details: read-out: % Inhibition at 10 μM of the test compound
MAP4K2 = MAP4K2 (Homo sapiens (Human), UniProt Q12851); details: read-out: % Inhibition at 10 μM of the test compound
PBK = PBK (Homo sapiens (Human), UniProt Q96KB5); details: read-out: % Inhibition at 10 μM of the test compound
AKT1 = AKT1 (Homo sapiens (Human), UniProt P31749); details: read-out: % Inhibition at 10 μM of the test compound
TRKC = TRKC (Homo sapiens (Human), UniProt Q16288); details: read-out: % Inhibition at 10 μM of the test compound
PKACα = PKACα (Homo sapiens (Human), UniProt P17612); details: read-out: % Inhibition at 10 μM of the test compound
PKCε = PKCε (Homo sapiens (Human), UniProt Q02156); details: read-out: % Inhibition at 10 μM of the test compound
Sequence of PKCε (Q02156 whole entry): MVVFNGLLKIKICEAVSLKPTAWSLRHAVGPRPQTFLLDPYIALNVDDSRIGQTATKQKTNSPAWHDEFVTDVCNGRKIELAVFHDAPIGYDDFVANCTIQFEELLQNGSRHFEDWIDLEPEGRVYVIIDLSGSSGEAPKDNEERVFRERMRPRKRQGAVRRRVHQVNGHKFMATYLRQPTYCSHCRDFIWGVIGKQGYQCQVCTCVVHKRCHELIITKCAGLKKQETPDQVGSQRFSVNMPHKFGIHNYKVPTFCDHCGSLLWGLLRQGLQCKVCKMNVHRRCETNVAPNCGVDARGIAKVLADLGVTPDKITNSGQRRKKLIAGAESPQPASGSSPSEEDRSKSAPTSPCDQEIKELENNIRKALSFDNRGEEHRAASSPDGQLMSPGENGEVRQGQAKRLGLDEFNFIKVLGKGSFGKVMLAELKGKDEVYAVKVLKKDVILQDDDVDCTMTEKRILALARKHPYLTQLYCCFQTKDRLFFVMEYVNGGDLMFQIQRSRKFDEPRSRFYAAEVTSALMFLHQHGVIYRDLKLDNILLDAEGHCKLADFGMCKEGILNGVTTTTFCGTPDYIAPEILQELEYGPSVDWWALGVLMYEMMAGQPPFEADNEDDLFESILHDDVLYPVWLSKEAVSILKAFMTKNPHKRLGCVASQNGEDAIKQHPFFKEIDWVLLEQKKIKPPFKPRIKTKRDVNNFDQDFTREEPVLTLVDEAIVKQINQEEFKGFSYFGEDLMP

SPHK2 = SPHK2 (Homo sapiens (Human), UniProt Q9NRA0); details: read-out: % Inhibition at 10 μM of the test compound
IRAK4 = IRAK4 (Homo sapiens (Human), UniProt Q9NWZ3); details: read-out: % Inhibition at 10 μM of the test compound
TXK = TXK (Homo sapiens (Human), UniProt P42681); details: read-out: % Inhibition at 10 μM of the test compound
HIPK3 = HIPK3 (Homo sapiens (Human), UniProt Q9H422); details: read-out: % Inhibition at 10 μM of the test compound
ALK(L1152insT) = tested on: ALK(L1152insT)
Procedure: Briefly, a selection of compounds was screened against a panel of kinases at a single concentration of 10 μM. […] This was completed using one of two assays, depending on the kinase being examined: 1) IMAP Assay. A solution of 4× inhibitor, 4× substrate/ATP/metal solution and 2× kinase solution was prepared with assay buffer (20 mM HEPES, 0.01% Tween-20, 2 mM DTT, pH 7.4) and mixed, then incubated in 384-well black plates for 1 hour at room temperature. The IMAP binding reagent (IMAP Screening Express kit; Molecular Devices) was added to each well and incubated for 30 minutes. […] 2) Off-Chip Mobility Shift Assay (MSA). A solution of 4× inhibitor, 4× substrate/ATP/metal solution and 2× kinase solution was prepared with assay buffer (20 mM HEPES, 0.01% Triton X-100, 2 mM DTT, pH 7.5) and mixed, then incubated in 384-well plates for 1 or 5 hours depending on the kinase, at room temperature. Termination buffer (QuickScout Screening assist MSA; Carna Biosciences) was added to each well. The entire reaction mixture was then applied to a LabChip3000 system (Caliper Life Science), and the product and substrate peptide peaks were separated and quantified. […] The entire reaction mixture was then applied to a LabChip3000 system (Caliper Life Science), and the product and substrate peptide peaks were separated and quantified.

ROCK2 = ROCK2 (Homo sapiens (Human), UniProt O75116); details: read-out: % Inhibition at 10 μM of the test compound
Sequence of ROCK2 (O75116 whole entry): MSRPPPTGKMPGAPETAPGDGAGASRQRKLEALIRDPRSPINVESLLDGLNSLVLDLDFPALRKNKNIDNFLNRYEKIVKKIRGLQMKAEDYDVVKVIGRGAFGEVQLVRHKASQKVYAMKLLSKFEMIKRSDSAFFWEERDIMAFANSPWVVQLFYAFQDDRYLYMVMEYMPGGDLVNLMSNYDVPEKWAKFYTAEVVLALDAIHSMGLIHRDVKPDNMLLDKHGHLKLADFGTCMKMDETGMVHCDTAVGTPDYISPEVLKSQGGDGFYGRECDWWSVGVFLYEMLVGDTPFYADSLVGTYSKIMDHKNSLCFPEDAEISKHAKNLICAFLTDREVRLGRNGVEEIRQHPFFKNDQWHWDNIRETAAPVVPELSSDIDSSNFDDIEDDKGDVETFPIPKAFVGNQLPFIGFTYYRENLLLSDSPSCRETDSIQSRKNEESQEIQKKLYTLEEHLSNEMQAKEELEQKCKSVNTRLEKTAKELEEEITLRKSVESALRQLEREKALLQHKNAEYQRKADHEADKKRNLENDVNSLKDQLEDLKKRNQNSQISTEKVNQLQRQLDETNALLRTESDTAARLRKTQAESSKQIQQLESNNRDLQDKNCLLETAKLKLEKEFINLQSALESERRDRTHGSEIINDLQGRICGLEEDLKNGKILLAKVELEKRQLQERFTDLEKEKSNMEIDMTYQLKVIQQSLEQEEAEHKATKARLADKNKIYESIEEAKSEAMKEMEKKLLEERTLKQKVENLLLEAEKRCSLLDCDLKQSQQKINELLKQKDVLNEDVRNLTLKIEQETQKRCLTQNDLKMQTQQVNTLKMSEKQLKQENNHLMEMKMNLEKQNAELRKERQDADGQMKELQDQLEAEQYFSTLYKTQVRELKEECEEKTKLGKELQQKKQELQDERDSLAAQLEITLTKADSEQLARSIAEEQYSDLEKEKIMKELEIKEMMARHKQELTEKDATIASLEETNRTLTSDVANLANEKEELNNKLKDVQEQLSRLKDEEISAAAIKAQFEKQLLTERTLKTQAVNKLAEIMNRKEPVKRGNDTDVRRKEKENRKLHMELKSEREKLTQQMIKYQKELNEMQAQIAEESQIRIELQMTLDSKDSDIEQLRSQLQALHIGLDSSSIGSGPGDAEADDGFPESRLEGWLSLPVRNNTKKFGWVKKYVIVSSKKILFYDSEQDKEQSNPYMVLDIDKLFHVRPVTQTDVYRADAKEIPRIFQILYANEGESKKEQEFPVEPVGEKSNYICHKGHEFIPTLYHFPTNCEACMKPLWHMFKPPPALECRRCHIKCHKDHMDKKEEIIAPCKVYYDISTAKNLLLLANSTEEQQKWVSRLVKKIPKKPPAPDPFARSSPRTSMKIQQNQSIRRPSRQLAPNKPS

AMPKα2/β1/γ1 = AMPKα2/β1/γ1 (Homo sapiens (Human), UniProt P54646); details: read-out: % Inhibition at 10 μM of the test compound
KIT(T670I) = KIT(T670I) (Homo sapiens (Human), UniProt P10721, T670I); details: read-out: % Inhibition at 10 μM of the test compound
KIT(D816Y) = KIT(D816Y) (Homo sapiens (Human), UniProt P10721, D816Y); details: read-out: % Inhibition at 10 μM of the test compound
ALK(G1202R) = ALK(G1202R) (Homo sapiens (Human), UniProt Q9UM73, G1202R); details: read-out: % Inhibition at 10 μM of the test compound
FGFR1 = FGFR1 (Homo sapiens (Human), UniProt P11362); details: read-out: % Inhibition at 10 μM of the test compound
PLK1 = PLK1 (Homo sapiens (Human), UniProt P53350); details: read-out: % Inhibition at 10 μM of the test compound
JAK1 = JAK1 (Homo sapiens (Human), UniProt P23458); details: read-out: % Inhibition at 10 μM of the test compound
PKCα = PKCα (Homo sapiens (Human), UniProt P17252); details: read-out: % Inhibition at 10 μM of the test compound
PKD2 = PKD2 (Homo sapiens (Human), UniProt Q9BZL6); details: read-out: % Inhibition at 10 μM of the test compound
MAPKAPK3 = MAPKAPK3 (Homo sapiens (Human), UniProt Q16644); details: read-out: % Inhibition at 10 μM of the test compound
MARK4 = MARK4 (Homo sapiens (Human), UniProt Q96L34); details: read-out: % Inhibition at 10 μM of the test compound

Sequence of EGFR (P00533 25-1210): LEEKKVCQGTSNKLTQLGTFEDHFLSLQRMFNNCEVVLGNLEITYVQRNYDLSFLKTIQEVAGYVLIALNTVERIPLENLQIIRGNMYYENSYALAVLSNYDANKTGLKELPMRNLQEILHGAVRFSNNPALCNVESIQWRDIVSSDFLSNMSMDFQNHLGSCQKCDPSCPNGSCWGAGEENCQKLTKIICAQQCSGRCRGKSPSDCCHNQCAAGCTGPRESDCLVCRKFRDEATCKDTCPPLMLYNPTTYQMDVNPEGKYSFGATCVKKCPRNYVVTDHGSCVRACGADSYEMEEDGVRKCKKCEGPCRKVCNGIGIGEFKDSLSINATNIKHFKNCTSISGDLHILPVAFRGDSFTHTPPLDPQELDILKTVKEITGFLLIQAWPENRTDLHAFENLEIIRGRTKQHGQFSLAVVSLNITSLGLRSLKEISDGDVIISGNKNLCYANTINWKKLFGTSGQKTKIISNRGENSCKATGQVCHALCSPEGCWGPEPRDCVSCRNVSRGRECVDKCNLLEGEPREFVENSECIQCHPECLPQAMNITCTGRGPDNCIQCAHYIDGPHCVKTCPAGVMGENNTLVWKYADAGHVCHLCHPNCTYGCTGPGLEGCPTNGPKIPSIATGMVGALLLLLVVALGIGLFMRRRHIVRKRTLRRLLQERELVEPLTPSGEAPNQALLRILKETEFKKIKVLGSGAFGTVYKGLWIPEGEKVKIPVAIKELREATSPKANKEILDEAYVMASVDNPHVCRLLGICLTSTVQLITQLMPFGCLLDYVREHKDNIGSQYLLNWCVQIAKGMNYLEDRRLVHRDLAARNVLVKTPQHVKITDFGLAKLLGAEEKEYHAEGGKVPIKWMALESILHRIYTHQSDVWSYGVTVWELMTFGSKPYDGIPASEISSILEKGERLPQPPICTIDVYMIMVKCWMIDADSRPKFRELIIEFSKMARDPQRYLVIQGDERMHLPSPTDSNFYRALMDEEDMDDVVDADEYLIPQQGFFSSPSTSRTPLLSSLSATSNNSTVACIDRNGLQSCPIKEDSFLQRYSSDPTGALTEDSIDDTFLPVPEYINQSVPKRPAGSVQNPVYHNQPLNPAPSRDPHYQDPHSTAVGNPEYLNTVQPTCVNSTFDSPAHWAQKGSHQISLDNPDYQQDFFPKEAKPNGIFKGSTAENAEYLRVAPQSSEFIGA

CCC1(c2ccccc2)C2=C(CC(C)(C)CC2=O)Nc2ncsc21 (stereo not shown) [Compound 1, 9-Ethyl-6,6-dimethyl-9-phenyl-5,6,7,9-tetrahydrothiazolo[4,5-b]quinolin-8(4H)-one]
inhibition at 10 µM (EGFR): 21.2% | inhibition at 10 µM (MAP3K3_Cascade): 11.1% | inhibition at 10 µM (PDHK4): 8.3% | inhibition at 10 µM (IRR): 6.6% | inhibition at 10 µM (MAP3K5_Cascade): 5.4% | inhibition at 10 µM (CK1α): 4.3% | inhibition at 10 µM (FGFR4(V550E)): 4% | inhibition at 10 µM (PAK6): 3.9% | inhibition at 10 µM (MER): 3.8% | inhibition at 10 µM (p38β): 3.8% | inhibition at 10 µM (FGFR4(V550L)): 3.3% | inhibition at 10 µM (YES): 3.3% | inhibition at 10 µM (EML4-ALK): 2.9% | inhibition at 10 µM (PAK5): 2.9% | inhibition at 10 µM (ALK(F1174L)): 1.8% | inhibition at 10 µM (MELK): 1.6% | inhibition at 10 µM (DDR1): 1.4% | inhibition at 10 µM (MAP4K2): 1.1% | inhibition at 10 µM (PBK): 0.8% | inhibition at 10 µM (AKT1): 0.7% | inhibition at 10 µM (TRKC): 0.4% | inhibition at 10 µM (PKACα): -0.6% | inhibition at 10 µM (PKCε): -0.7% | inhibition at 10 µM (SPHK2): -0.8% | inhibition at 10 µM (IRAK4): -1.2% | inhibition at 10 µM (TXK): -1.3% | inhibition at 10 µM (HIPK3): -1.9% | % Inhibition at 10 μM of the test compound (ALK(L1152insT)): −2.3% | inhibition at 10 µM (ROCK2): -3.1% | inhibition at 10 µM (AMPKα2/β1/γ1): -4.1% | inhibition at 10 µM (KIT(T670I)): -4.2% | inhibition at 10 µM (KIT(D816Y)): -4.7% | inhibition at 10 µM (ALK(G1202R)): -5% | inhibition at 10 µM (FGFR1): -5% | inhibition at 10 µM (PLK1): -5.3% | inhibition at 10 µM (JAK1): -6.4% | inhibition at 10 µM (PKCα): -11% | inhibition at 10 µM (PKD2): -13.8% | inhibition at 10 µM (MAPKAPK3): -15.5% | inhibition at 10 µM (MARK4): -15.7%
